Laboratory results reported in patent publication US5451573A, “Substituted cyclohexane derivatives for the treatment of diseases” (Hoechst Aktiengesellschaft, priority 1992, dated 1995).

Tested on: lipoxygenase
Assay: not given
Settings: M. Nishizawa et al., Chem. Pharm. Bull. 34(3), 1419 (1986); cited from earlier work

SMILES | inhibitor of lipoxygenase (in words)
O=C(/C=C/c1ccc(O)c(O)c1)O[C@@H]1C[C@](O)(C(=O)O)C[C@@H](O)[C@H]1O [Compound 17, chlorogenic acid] | inhibitor of lipoxygenase

Target: T1, glucose-6-phosphatase system (Rattus norvegicus, UniProt F7EWB7)
T1 construct: from tissue; host or cells: liver microsomes of male Wistar rats
T1 sequence (F7EWB7 1-429): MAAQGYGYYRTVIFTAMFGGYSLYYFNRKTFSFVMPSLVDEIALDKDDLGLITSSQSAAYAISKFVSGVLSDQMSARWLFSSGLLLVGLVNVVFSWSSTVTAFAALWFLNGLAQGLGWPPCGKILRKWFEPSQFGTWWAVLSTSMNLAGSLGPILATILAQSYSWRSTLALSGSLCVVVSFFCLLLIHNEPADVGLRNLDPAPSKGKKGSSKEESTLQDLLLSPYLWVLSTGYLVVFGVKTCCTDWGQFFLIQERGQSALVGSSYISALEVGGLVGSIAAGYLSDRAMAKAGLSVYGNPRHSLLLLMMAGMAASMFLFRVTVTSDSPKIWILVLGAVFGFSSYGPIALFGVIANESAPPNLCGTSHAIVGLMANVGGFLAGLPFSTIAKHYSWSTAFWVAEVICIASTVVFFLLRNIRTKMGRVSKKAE
Assay: glucose-6-phosphatase enzyme test in liver microsomes (phosphate released from glucose-6-phosphate)
Type: biochemical, male Wistar rats
Settings: not given
Description: The action of the compounds according to the invention on the glucose-6-phosphatase system was investigated in an enzyme test in liver microsomes.
Fresh liver organs of male Wistar rats were used for the preparation of the microsome fraction containing the glucose-6-phosphatase and processed as described in the literature [Canfield, W. K. and Arion, W. J., J. Biol. Chem. 263, 7458-7460, (1988)]. This microsome fraction can be stored at -70° C. for at least 2 months without significant loss of activity.
The detection of the glucose-6-phosphatase activity was carried out as indicated in the literature (Arion, W. J. in Methods Enzymol. 174, Academic Press 1989, pages 58-67) by determination of the phosphate released from glucose-6-phosphate. 0.1 ml of test mixture contained glucose-6-phosphate (1 mmol/l), the test substance, 0.1 mg of microsome fraction and 100 mmol/l of HEPES buffer (4-(2-hydroxyethyl)piperazine-1-ethanesulfonic acid), pH 7.0. The reaction was started by addition of the enzyme. After 20 min had passed at room temperature, the reaction was stopped by addition of 0.2 ml of phosphate reagent. The sample was incubated at 37° C. for 30 min, and the absorption (A) of the blue color was then measured at 570 nm. The inhibitory activity of the test substance resulted by comparison with a control reaction, which contained no test substance, according to the formula [formula]

SMILES | inhibitor of the glucose-6-phosphatase system (in words)
O=C(/C=C/c1ccc(O)c(O)c1)O[C@@H]1C[C@](O)(C(=O)O)C[C@@H](O)[C@H]1O [Compound 17, chlorogenic acid] | inhibitors of the glucose-6-phosphatase system

Same assay, conditions: Concentration 1 × 10^-3 M; rat liver microsome fraction, glucose-6-phosphate 1 mmol/l, pH 7.0; read-out: Inhibition [%]

SMILES | inhibition at 1000 µM [%]
O=C(/C=C/c1ccc(O)c(F)c1)O[C@@H]1C[C@](O)(C(=O)O)C[C@@H](O)[C@H]1O [Compound 10] | 50
O=C(/C=C/c1cccnc1)O[C@@H]1C[C@](O)(C(=O)O)C[C@@H](O)[C@H]1O [Compound 11] | 20
COc1sccc1/C=C/C(=O)O[C@@H]1C[C@](O)(C(=O)O)C[C@@H](O)[C@H]1O [Compound 14] | 20
O=C(/C=C/c1ccc([N+](=O)[O-])cc1)O[C@@H]1C[C@](O)(C(=O)O)C[C@@H](O)[C@H]1O [Compound 16] | 35
O=C(/C=C/c1ccc(O)cc1)O[C@@H]1C[C@](O)(C(=O)O)[C@@H](O)[C@@H](O)[C@H]1O [Compound 20] | 30
O=C(/C=C/c1ccc(O)cc1)O[C@@H]1C[C@@](O)(C(=O)O)[C@H](O)[C@@H](O)[C@H]1O [Compound 20α] | 10
O=C(/C=C/c1ccc(O)cc1)O[C@@H]1C[C@H](C(=O)O)CC[C@H]1O [Compound 22] | 20
O=C(O)C[C@]1(O)C[C@@H](O)[C@@H](O)[C@H](OC(=O)/C=C/c2ccc(O)cc2)C1 [Compound 23] | 30
O=C(O)CC[C@]1(O)C[C@@H](O)[C@@H](O)[C@H](OC(=O)/C=C/c2ccc(O)cc2)C1 [Compound 24] | 45
O=C(/C=C/c1ccc(O)cc1)N[C@@H]1CC(C(=O)O)=C[C@@H](O)[C@H]1O [Compound 26] | 15
O=C(/C=C/c1ccc(O)cc1)O[C@@H]1CC(CP(=O)(O)O)=C[C@@H](O)[C@H]1O [Compound 28] | 28

Same assay, conditions: pH 7

SMILES | inhibition at 1000 µM [%]
COP(=O)(CC1=C[C@@H](O)[C@@H](O)[C@H](OC(=O)/C=C/c2ccc(O)cc2)C1)OC [Compound 27] | 15

Same assay, conditions: rat liver microsome fraction, glucose-6-phosphate 1 mmol/l, pH 7.0, 20 min room temperature; concentration at which 50 % inhibition is printed; read-out: Concentration [M] giving Inhibition 50 [%]

SMILES | IC50 [M]
O=C(/C=C/c1ccc(O)c(O)c1O)O[C@@H]1C[C@](O)(C(=O)O)C[C@@H](O)[C@H]1O [Compound 1] | 0.00031
O=C(/C=C/c1cccc(O)c1O)O[C@@H]1C[C@](O)(C(=O)O)C[C@@H](O)[C@H]1O [Compound 2] | 0.00031
O=C(/C=C/c1cc(O)ccc1O)O[C@@H]1C[C@](O)(C(=O)O)C[C@@H](O)[C@H]1O [Compound 3] | 0.00068
O=C(/C=C/c1ccc(O)cc1O)O[C@@H]1C[C@](O)(C(=O)O)C[C@@H](O)[C@H]1O [Compound 4] | 0.00068
COc1cc(/C=C/C(=O)O[C@@H]2C[C@](O)(C(=O)O)C[C@@H](O)[C@H]2O)ccc1O [Compound 5] | 0.00041
COc1ccc(/C=C/C(=O)O[C@@H]2C[C@](O)(C(=O)O)C[C@@H](O)[C@H]2O)cc1O [Compound 6] | 0.00046
O=C(/C=C/c1cccc(O)c1)O[C@@H]1C[C@](O)(C(=O)O)C[C@@H](O)[C@H]1O [Compound 7] | 0.00053
O=C(/C=C/c1ccc(O)cc1)O[C@@H]1C[C@](O)(C(=O)O)C[C@@H](O)[C@H]1O [Compound 8] | 0.00026
O=C(/C=C/c1ccccc1O)O[C@@H]1C[C@](O)(C(=O)O)C[C@@H](O)[C@H]1O [Compound 9] | 0.00048
O=C(/C=C/c1ccc(O)c(F)c1)O[C@@H]1C[C@](O)(C(=O)O)C[C@@H](O)[C@H]1O [Compound 10] | 0.001
O=C(/C=C/c1cccs1)O[C@@H]1C[C@](O)(C(=O)O)C[C@@H](O)[C@H]1O [Compound 12] | 0.00038
O=C(/C=C/c1ccsc1)O[C@@H]1C[C@](O)(C(=O)O)C[C@@H](O)[C@H]1O [Compound 13] | 0.00078
O=C(/C=C/c1c(O)ccc2ccccc12)O[C@@H]1C[C@](O)(C(=O)O)C[C@@H](O)[C@H]1O [Compound 15] | 0.00046
O=C(/C=C/c1ccc(O)c(O)c1)O[C@@H]1C[C@](O)(C(=O)O)C[C@@H](O)[C@H]1O [Compound 17, chlorogenic acid] | 0.00023
COc1ccc(/C=C/C(=O)O[C@@H]2C[C@](O)(C(=O)O)C[C@@H](O)[C@H]2O)cc1OC [Compound 17α] | 0.00068
O=C(O[C@@H]1C[C@](O)(C(=O)O)C[C@@H](O)[C@H]1O)c1ccc(OCc2ccccc2)cc1 [Compound 18] | 0.00068
O=C(O[C@@H]1C[C@](O)(C(=O)O)C[C@@H](O)[C@H]1O)c1ccc(O)cc1 [Compound 19] | 0.00092
O=C(/C=C/c1ccc(O)cc1)O[C@@H]1C[C@H](C(=O)O)C[C@@H](O)[C@H]1O [Compound 21] | 0.00023
O=C(/C=C/c1ccc(O)cc1)O[C@@H]1CC(C(=O)O)=C[C@@H](O)[C@H]1O [Compound 25] | 0.00025

Tested on: glucose-6-phosphatase
Assay: not given
Settings: described in the literature; cited from earlier work

SMILES | non-specific inhibitor of glucose-6-phosphatase (in words)
S=C=Nc1ccccc1C=Cc1ccccc1N=C=S [2,2'-diisothiocyanatostilbene] | non-specific inhibitors of glucose-6-phosphatase
CC(=O)Oc1ccccc1C=Cc1ccccc1N=C=S [2-isothiocyanato-2'-acetoxystilbene] | non-specific inhibitors of glucose-6-phosphatase
O=C(O)c1cc(SSc2ccc([N+](=O)[O-])c(C(=O)O)c2)ccc1[N+](=O)[O-] [5,5'-dithiobis-2-nitrobenzoic acid] | non-specific inhibitors of glucose-6-phosphatase
O=C(CCc1ccc(O)cc1)c1c(O)cc(O)cc1O[C@@H]1O[C@H](CO)[C@@H](O)[C@H](O)[C@H]1O [phlorhizin] | non-specific inhibitors of glucose-6-phosphatase
